{"source": "patent US6369083B1", "about": "“2-methoxyimino-2 (pyrinyloxymethyl) phenyl acetamides with polyether derivatives on the pyridine ring” (Dow AgroSciences LLC, priority 1998, dated 2002)", "assay_type_in_all_cases": "in vivo", "key": {"Plasmopara viticola": {"system": "Plasmopara viticola", "assay": "Downy Mildew of Grape (PLASVI), 96 hour protectant", "settings": "grape vines (cultivar Carignane), sprayed at 100 ppm, inoculated after 96 hours (protectant)", "description": "Compound Formulation: […] Final treatment volumes were obtained by adding nine volumes 0.05kOO aqueous Tween-20 or Triton X-100, depending upon the pathogen. Downy Mildew of Grape (Plasmogara viticola-[…]) (96 Hour Protectant): Vines (cultivar Carignane) were grown from seed in a soilless peat-based potting mixture (Metromix) until the seedlings were 10-20 cm tall. These plants were then sprayed to run off with the test compound at a rate of 100 ppm. After 96 hours the test plants were inoculated by spraying with an aqueous sporangia suspension of Plasmopara viticola. The plants were then transferred to the greenhouse until disease developed on the untreated control plants. The following table presents the activity of typical compounds of the present invention when evaluated in these experiments. The effectiveness of the test compounds in controlling disease was rated using the following scale: […]"}, "Erysiphe graminis": {"system": "Erysiphe graminis", "assay": "Powdery Mildew of Wheat (ERYSGT)", "settings": "wheat (cultivar Monon), inoculated, sprayed at 25 ppm after 48 hours", "description": "Compound Formulation: […] Final treatment volumes were obtained by adding nine volumes 0.05kOO aqueous Tween-20 or Triton X-100, depending upon the pathogen. Powdery Mildew of Wheat (Erysiphe graminis-[…]): Wheat (cultivar Monon) was grown in a soilless peat-based potting mixture (Metromix) until the seedlings were 1-2 leaf (BBCH 12). These plants were then inoculated with Erysiphe graminis by dusting spores from stock plants onto the test plants. After 48 hours the plants were sprayed to run off with the test compound at a rate of 25 ppm and then kept in the greenhouse until disease developed on the untreated control plants. The following table presents the activity of typical compounds of the present invention when evaluated in these experiments. The effectiveness of the test compounds in controlling disease was rated using the following scale: […]"}, "Leptosphaeria nodorum": {"system": "Leptosphaeria nodorum", "assay": "Glume blotch of wheat (LEPTNO)", "settings": "wheat (cultivar Monon), sprayed at 100 ppm, inoculated after 24 hours", "description": "(§1) Compound Formulation: […] Final treatment volumes were obtained by adding nine volumes 0.05kOO aqueous Tween-20 or Triton X-100, depending upon the pathogen. Glume blotch of wheat (Leptosphaeria nodorum-[…]): Wheat (cultivar Monon) was grown from seed in a soilless peat-based potting mixture (Metromix) until the seedlings were 1-2 leaf (BBCH 12). These plants were then sprayed to run off with the test compound at a rate of 100 ppm. After 24 hours the test plants were inoculated with an aqueous spore suspension of Leptosphaeria nodorum. The plants were then transferred to the greenhouse until disease developed on the untreated control plants. Brown rust (Puccinia recondita-PUCCRT): Wheat (cultivar Monon) was grown from seed in a soilless peat-based potting mixture (Metromix) until the seedlings were 1-2 leaf (BBCH 12). These plants were then sprayed to run off with the test compound at a rate of 100 ppm. After 24 hours the test plants were inoculated with an aqueous spore suspension of Puccinia recondita. The plants were then transferred to the greenhouse until disease developed on the untreated control plants. The following table presents the activity of typical compounds of the present invention when evaluated in these experiments. The effectiveness of the test compounds in controlling disease was rated using the following scale: […]"}, "Puccinia recondita": {"system": "Puccinia recondita", "assay": "Brown rust (PUCCRT)", "settings": "wheat (cultivar Monon), sprayed at 100 ppm, inoculated after 24 hours", "description": "as §1"}}}
{"smiles": "CNC(=O)C(=NOC)c1ccccc1COc1nc(OCC2COC(C)(C)O2)c(Cl)cc1Cl", "note": "(centres unmarked) [Compound 1]", "values": [{"measurement": "PLASVI control of plant disease", "setting": "Plasmopara viticola", "value": "++ (++ = 75-100 % control of plant disease)"}, {"measurement": "ERYSGT control of plant disease", "setting": "Erysiphe graminis", "value": "+ (+ = 25-74% control of plant disease)"}, {"measurement": "LEPTNO control of plant disease", "setting": "Leptosphaeria nodorum", "value": "++ (++ = 75-100 % control of plant disease)"}, {"measurement": "PUCCRT control of plant disease", "setting": "Puccinia recondita", "value": "++ (++ = 75-100 % control of plant disease)"}]}
{"smiles": "CNC(=O)C(=NOC)c1ccccc1COc1cccc(OCC2COC(C)(C)O2)n1", "note": "(stereo not drawn) [Compound 2, Benzeneacetamide, 2-[[[6-((2,2-dimethyl-1,3-dioxolanyl)-4-methoxy)-2-pyridinyl]oxy]methy]-α-(methoxyimino)-N-methyl-]", "values": [{"measurement": "PLASVI control of plant disease", "setting": "Plasmopara viticola", "value": "++ (++ = 75-100 % control of plant disease)"}, {"measurement": "ERYSGT control of plant disease", "setting": "Erysiphe graminis", "value": "+ (+ = 25-74% control of plant disease)"}, {"measurement": "LEPTNO control of plant disease", "setting": "Leptosphaeria nodorum", "value": "++ (++ = 75-100 % control of plant disease)"}, {"measurement": "PUCCRT control of plant disease", "setting": "Puccinia recondita", "value": "++ (++ = 75-100 % control of plant disease)"}]}
{"smiles": "CNC(=O)C(=NOC)c1ccccc1COc1cccc(OC(COC)OC)n1", "note": "(centres unmarked) [Compound 22]", "values": [{"measurement": "PLASVI control of plant disease", "setting": "Plasmopara viticola", "value": "+ (+ = 25-74% control of plant disease)"}, {"measurement": "ERYSGT control of plant disease", "setting": "Erysiphe graminis", "value": "++ (++ = 75-100 % control of plant disease)"}, {"measurement": "LEPTNO control of plant disease", "setting": "Leptosphaeria nodorum", "value": "+ (+ = 25-74% control of plant disease)"}]}
{"smiles": "CCOCCOc1nc(OCc2ccccc2C(=NOC)C(=O)NC)ccc1Cl", "note": "[Compound 24, Benzeneacetamide, 2-[[[5-chloro-6-(2-ethoxyethoxy)-2-pyridinyl]oxy]methyl]-α-(methoxyimino)-N-methyl-]", "values": [{"measurement": "PLASVI control of plant disease", "setting": "Plasmopara viticola", "value": "++ (++ = 75-100 % control of plant disease)"}, {"measurement": "ERYSGT control of plant disease", "setting": "Erysiphe graminis", "value": "++ (++ = 75-100 % control of plant disease)"}, {"measurement": "LEPTNO control of plant disease", "setting": "Leptosphaeria nodorum", "value": "+ (+ = 25-74% control of plant disease)"}]}
{"smiles": "CNC(=O)C(=NOC)c1ccccc1COc1cccc(SCCSC(C)(C)C)n1", "note": "[Compound 52]", "values": [{"measurement": "PLASVI control of plant disease", "setting": "Plasmopara viticola", "value": "++ (++ = 75-100 % control of plant disease)"}, {"measurement": "ERYSGT control of plant disease", "setting": "Erysiphe graminis", "value": "++ (++ = 75-100 % control of plant disease)"}, {"measurement": "LEPTNO control of plant disease", "setting": "Leptosphaeria nodorum", "value": "+ (+ = 25-74% control of plant disease)"}]}
{"smiles": "CNC(=O)C(=NOC)c1ccccc1COc1cccc(OCCOC(C)C)n1", "note": "[Compound 53]", "values": [{"measurement": "PLASVI control of plant disease", "setting": "Plasmopara viticola", "value": "++ (++ = 75-100 % control of plant disease)"}, {"measurement": "ERYSGT control of plant disease", "setting": "Erysiphe graminis", "value": "++ (++ = 75-100 % control of plant disease)"}, {"measurement": "LEPTNO control of plant disease", "setting": "Leptosphaeria nodorum", "value": "− (− = 0-24% control of plant disease)"}]}
{"smiles": "CNC(=O)C(=NOC)c1ccccc1COc1cccc(OCCCOC(C)C)n1", "note": "[Compound 54]", "values": [{"measurement": "PLASVI control of plant disease", "setting": "Plasmopara viticola", "value": "++ (++ = 75-100 % control of plant disease)"}, {"measurement": "ERYSGT control of plant disease", "setting": "Erysiphe graminis", "value": "++ (++ = 75-100 % control of plant disease)"}, {"measurement": "LEPTNO control of plant disease", "setting": "Leptosphaeria nodorum", "value": "++ (++ = 75-100 % control of plant disease)"}]}
{"smiles": "CCCOCCCOc1cccc(OCc2ccccc2C(=NOC)C(=O)NC)n1", "note": "[Compound 89]", "values": [{"measurement": "PLASVI control of plant disease", "setting": "Plasmopara viticola", "value": "− (− = 0-24% control of plant disease)"}, {"measurement": "ERYSGT control of plant disease", "setting": "Erysiphe graminis", "value": "+ (+ = 25-74% control of plant disease)"}, {"measurement": "LEPTNO control of plant disease", "setting": "Leptosphaeria nodorum", "value": "− (− = 0-24% control of plant disease)"}]}
